Assay results taken from ChEMBL document CHEMBL4665642, “Anticancer profile of newly synthesized BRAF inhibitors possess 5-(pyrimidin-4-yl)imidazo[2,1-b]thiazole scaffold” (Bioorg Med Chem, 2019).

Assays:
Format in all cases: functional
Conditions in all cases: read-out: Activity
SNB-75 = assay: Cytotoxicity against human SNB-75 cells assessed as cell viability at 10 uM incubated for 48 hrs by sulforhodamine B assay relative to control
RXF 393 = assay: Cytotoxicity against human RXF 393 cells assessed as cell viability at 10 uM incubated for 48 hrs by sulforhodamine B assay relative to control
SNB-19 = assay: Cytotoxicity against human SNB-19 cells assessed as cell viability at 10 uM incubated for 48 hrs by sulforhodamine B assay relative to control
A549 = assay: Cytotoxicity against human A549 cells assessed as cell viability at 10 uM incubated for 48 hrs by sulforhodamine B assay relative to control
NCI-H322M = assay: Cytotoxicity against human NCI-H322M cells assessed as cell viability at 10 uM incubated for 48 hrs by sulforhodamine B assay relative to control
SR = assay: Cytotoxicity against human SR cells assessed as cell viability at 10 uM incubated for 48 hrs by sulforhodamine B assay relative to control
BT-549 = assay: Cytotoxicity against human BT-549 cells assessed as cell viability at 10 uM incubated for 48 hrs by sulforhodamine B assay relative to control
SF-268 = assay: Cytotoxicity against human SF-268 cells assessed as cell viability at 10 uM incubated for 48 hrs by sulforhodamine B assay relative to control
CAKI-1 = assay: Cytotoxicity against human CAKI-1 cells assessed as cell viability at 10 uM incubated for 48 hrs by sulforhodamine B assay relative to control
LOX IMVI = assay: Cytotoxicity against human LOX IMVI cells assessed as cell viability at 10 uM incubated for 48 hrs by sulforhodamine B assay relative to control
NCI/ADR-RES = assay: Cytotoxicity against human NCI/ADR-RES cells assessed as cell viability at 10 uM incubated for 48 hrs by sulforhodamine B assay relative to control
Hs-578T = assay: Cytotoxicity against human HS-578T cells assessed as cell viability at 10 uM incubated for 48 hrs by sulforhodamine B assay relative to control
U-251 = assay: Cytotoxicity against human U-251 cells assessed as cell viability at 10 uM incubated for 48 hrs by sulforhodamine B assay relative to control
SF-539 = assay: Cytotoxicity against human SF-539 cells assessed as cell viability at 10 uM incubated for 48 hrs by sulforhodamine B assay relative to control
IGROV-1 = assay: Cytotoxicity against human IGROV-1 cells assessed as cell viability at 10 uM incubated for 48 hrs by sulforhodamine B assay relative to control
MCF7 = assay: Cytotoxicity against human MCF7 cells assessed as cell viability at 10 uM incubated for 48 hrs by sulforhodamine B assay relative to control
SW-620 = assay: Cytotoxicity against human SW-620 cells assessed as cell viability at 10 uM incubated for 48 hrs by sulforhodamine B assay relative to control
Malme-3M = assay: Cytotoxicity against human Malme-3M cells assessed as cell viability at 10 uM incubated for 48 hrs by sulforhodamine B assay relative to control
M14 = assay: Cytotoxicity against human M14 cells assessed as cell viability at 10 uM incubated for 48 hrs by sulforhodamine B assay relative to control
DU-145 = assay: Cytotoxicity against human DU-145 cells assessed as cell viability at 10 uM incubated for 48 hrs by sulforhodamine B assay relative to control
SF-295 = assay: Cytotoxicity against human SF-295 cells assessed as cell viability at 10 uM incubated for 48 hrs by sulforhodamine B assay relative to control
HCC 2998 = assay: Cytotoxicity against human HCC 2998 cells assessed as cell viability at 10 uM incubated for 48 hrs by sulforhodamine B assay relative to control
UACC-257 = assay: Cytotoxicity against human UACC-257 cells assessed as cell viability at 10 uM incubated for 48 hrs by sulforhodamine B assay relative to control
MDA-MB-435 = assay: Cytotoxicity against human MDA-MB-435 cells assessed as cell viability at 10 uM incubated for 48 hrs by sulforhodamine B assay relative to control
SK-MEL-5 = assay: Cytotoxicity against human SK-MEL-5 cells assessed as cell viability at 10 uM incubated for 48 hrs by sulforhodamine B assay relative to control
EKVX = assay: Cytotoxicity against human EKVX cells assessed as cell viability at 10 uM incubated for 48 hrs by sulforhodamine B assay relative to control
HCT-116 = assay: Cytotoxicity against human HCT-116 cells assessed as cell viability at 10 uM incubated for 48 hrs by sulforhodamine B assay relative to control
NCI-H522 = assay: Cytotoxicity against human NCI-H522 cells assessed as cell viability at 10 uM incubated for 48 hrs by sulforhodamine B assay relative to control
HCT-15 = assay: Cytotoxicity against human HCT-15 cells assessed as cell viability at 10 uM incubated for 48 hrs by sulforhodamine B assay relative to control
PC-3 = assay: Cytotoxicity against human PC-3 cells assessed as cell viability at 10 uM incubated for 48 hrs by sulforhodamine B assay relative to control
OVCAR-8 = assay: Cytotoxicity against human OVCAR-8 cells assessed as cell viability at 10 uM incubated for 48 hrs by sulforhodamine B assay relative to control
TK-10 = assay: Cytotoxicity against human TK-10 cells assessed as cell viability at 10 uM incubated for 48 hrs by sulforhodamine B assay relative to control
HOP-62 = assay: Cytotoxicity against human HOP-62 cells assessed as cell viability at 10 uM incubated for 48 hrs by sulforhodamine B assay relative to control
NCI-H23 = assay: Cytotoxicity against human NCI-H23 cells assessed as cell viability at 10 uM incubated for 48 hrs by sulforhodamine B assay relative to control
UO-31 = assay: Cytotoxicity against human UO-31 cells assessed as cell viability at 10 uM incubated for 48 hrs by sulforhodamine B assay relative to control
MDA-MB-231 = assay: Cytotoxicity against human MDA-MB-231 cells assessed as cell viability at 10 uM incubated for 48 hrs by sulforhodamine B assay relative to control
OVCAR-5 = assay: Cytotoxicity against human OVCAR-5 cells assessed as cell viability at 10 uM incubated for 48 hrs by sulforhodamine B assay relative to control
SK-MEL-2 = assay: Cytotoxicity against human SK-MEL-2 cells assessed as cell viability at 10 uM incubated for 48 hrs by sulforhodamine B assay relative to control
RPMI-8226 = assay: Cytotoxicity against human RPMI-8226 cells assessed as cell viability at 10 uM incubated for 48 hrs by sulforhodamine B assay relative to control
HOP-92 = assay: Cytotoxicity against human HOP-92 cells assessed as cell viability at 10 uM incubated for 48 hrs by sulforhodamine B assay relative to control
NCI-H226 = assay: Cytotoxicity against human NCI-H226 cells assessed as cell viability at 10 uM incubated for 48 hrs by sulforhodamine B assay relative to control

Molecule `O=S(=O)(NCCNc1nccc(-c2c(-c3cccc(F)c3)nc3sccn23)n1)c1ccccc1` has a viability at 10 µM (SNB-75) of 71.5%, a viability at 10 µM (RXF 393) of 64.1% and a viability at 10 µM (SNB-19) of 55.9%. The viability at 10 µM (A549) was 25.2%, the viability at 10 µM (NCI-H322M) was 51.5% and the viability at 10 µM (SR) was 29.2%. It also gave a viability at 10 µM (BT-549) of 50.4%, a viability at 10 µM (SF-268) of 43.5% and a viability at 10 µM (CAKI-1) of 39.1%. It also gave a viability at 10 µM (LOX IMVI) of 36.3%, a viability at 10 µM (NCI/ADR-RES) of 46.3% and a viability at 10 µM (Hs-578T) of 55.5%. For the same molecule, the viability at 10 µM (U-251) was 44%, the viability at 10 µM (SF-539) was 65.5% and the viability at 10 µM (IGROV-1) was 4.9%. It also gave a viability at 10 µM (MCF7) of 21.7%, a viability at 10 µM (SW-620) of 44.5% and a viability at 10 µM (Malme-3M) of 68.5%. The viability at 10 µM (M14) was 41.4%, the viability at 10 µM (DU-145) was 40% and the viability at 10 µM (SF-295) was 47.4%. For the same molecule, the viability at 10 µM (HCC 2998) was 66.3%, the viability at 10 µM (UACC-257) was 65.3% and the viability at 10 µM (MDA-MB-435) was 17.4%. It also gave a viability at 10 µM (SK-MEL-5) of 19.1%, a viability at 10 µM (EKVX) of 53.4% and a viability at 10 µM (HCT-116) of 22.7%. For the same molecule, the viability at 10 µM (NCI-H522) was 43.7%, the viability at 10 µM (HCT-15) was 25.8% and the viability at 10 µM (PC-3) was 33.1%. The viability at 10 µM (OVCAR-8) was 33.9%, the viability at 10 µM (TK-10) was 59.5% and the viability at 10 µM (HOP-62) was 60.2%. It also gave a viability at 10 µM (NCI-H23) of 56.1%, a viability at 10 µM (UO-31) of 15.4% and a viability at 10 µM (MDA-MB-231) of 66%. For the same molecule, the viability at 10 µM (OVCAR-5) was 79.6%, the viability at 10 µM (SK-MEL-2) was 51.8% and the viability at 10 µM (RPMI-8226) was 43.5%. The viability at 10 µM (HOP-92) was 51.5% and the viability at 10 µM (NCI-H226) was 34.5%.

`O=S(=O)(NCCCNc1nccc(-c2c(-c3cccc(F)c3)nc3sccn23)n1)c1ccccc1` gave a viability at 10 µM (SNB-75) of 102%, a viability at 10 µM (RXF 393) of 84% and a viability at 10 µM (SNB-19) of 93.5%. For the same molecule, the viability at 10 µM (A549) was 63%, the viability at 10 µM (NCI-H322M) was 89.3% and the viability at 10 µM (SR) was 82.2%. It also gave a viability at 10 µM (BT-549) of 71.1%, a viability at 10 µM (SF-268) of 71.5% and a viability at 10 µM (CAKI-1) of 56.4%. For the same molecule, the viability at 10 µM (LOX IMVI) was 50.3%, the viability at 10 µM (NCI/ADR-RES) was 53.4% and the viability at 10 µM (Hs-578T) was 89.9%. For the same molecule, the viability at 10 µM (U-251) was 82.3%, the viability at 10 µM (SF-539) was 99.1% and the viability at 10 µM (IGROV-1) was 35.2%. For the same molecule, the viability at 10 µM (MCF7) was 50.8%, the viability at 10 µM (SW-620) was 91.3% and the viability at 10 µM (Malme-3M) was 82.1%. For the same molecule, the viability at 10 µM (M14) was 50.5%, the viability at 10 µM (DU-145) was 72.7% and the viability at 10 µM (SF-295) was 79.9%. For the same molecule, the viability at 10 µM (HCC 2998) was 120%, the viability at 10 µM (UACC-257) was 86.7% and the viability at 10 µM (MDA-MB-435) was 41.7%. It also gave a viability at 10 µM (SK-MEL-5) of 30.7%, a viability at 10 µM (EKVX) of 65.4% and a viability at 10 µM (HCT-116) of 56.7%. The viability at 10 µM (NCI-H522) was 47%, the viability at 10 µM (HCT-15) was 37.8% and the viability at 10 µM (PC-3) was 53.5%. The viability at 10 µM (OVCAR-8) was 43%, the viability at 10 µM (TK-10) was 92.8% and the viability at 10 µM (HOP-62) was 98.9%. For the same molecule, the viability at 10 µM (NCI-H23) was 76.9%, the viability at 10 µM (UO-31) was 39% and the viability at 10 µM (MDA-MB-231) was 70.8%. The viability at 10 µM (OVCAR-5) was 121%, the viability at 10 µM (SK-MEL-2) was 65.1% and the viability at 10 µM (RPMI-8226) was 48%. For the same molecule, the viability at 10 µM (HOP-92) was 80.2% and the viability at 10 µM (NCI-H226) was 43.2%.
